In US7381749B2, “Sulfonamides as inhibitors of histone deacetylase for the treatment of disease” (Kalypsys, Inc., priority 2004, dated 2008):

What was measured:
HDAC = test: In vitro HDAC-inhibition assay (Fluor de Lys fluorescent substrate); type: biochemical; details: HDAC enzyme source (e.g. partially purified nuclear extract or immunopurified HDAC complexes)
Protocol: In vitro HDAC-Inhibition Assay:
This assay measures a compound's ability to inhibit acetyl-lysine deacetylation in vitro and was used as both a primary screening method as well as for IC50 determinations of confirmed inhibitors. The assay is performed in vitro using an HDAC enzyme source (e.g. partially purified nuclear extract or immunopurified HDAC complexes) and a proprietary fluorescent substrate/developer system (HDAC Quantizyme Fluor de Lys Fluorescent Activity Assay, BIOMOL). The assay is run in 1,536-well Greiner white-bottom plates using the following volumes and order of addition: • Step 1: Enzyme (2.5 ul) source added to plate (from refrigerated container) • Step 2: Compounds (50 nl) added with pin transfer device • Step 3: Fluor de Lys (2.5 ul) substrate added, incubate at RT, 30 minutes • Step 4: Developer (5 ul) solution is added (containing TSA), to stop reaction • Step 5: Plate Reader—data collection • The deacetylated fluorophore is excited with 360 nm light and the emitted light (460 nm) is detected on an automated fluorometric plate reader (Aquest, Molecular Devices).

HDAC in cells = test: Cellular IC50 (cellular assays: histone hyperacetylation cytoblot / differential cytotoxicity); type: cell-based; details: transformed cell lines (e.g. HeLa, A549, MCF-7); cell line not specified
Protocol: These two secondary assays evaluates a compound's ability to inhibit HDAC in cells by measuring cellular histone acetylation levels. The cytoblot facilitates quantitative EC50 information for cellular HDAC inhibition. Transformed cell lines (e.g. HeLa, A549, MCF-7) are cultured under standard media and culture conditions prior to plating.
Cells (approx. 2,500/well) are allowed to adhere 10-24 hours to wells of a 384-well Greiner PS assay plate in media containing 1-5% serum. Cells are treated with appropriate compound and specific concentrations for 0 to 24 hours. Cells are washed once with PBS (60 ul) and then fixed (95% ethanol, 5% acetic acid or 2% PFA) for 1 minute at RT (30 ul). Cells are blocked with 1% BSA for 1 hour and washed and stained with antibody (e.g. anti-Acetylated Histone H3, Upstate Biotechnology), followed by washing and incubation with an appropriate secondary antibody conjugated to HRP or fluorophore. For luminescence assays, signal is generated using Luminol substrate (Santa Cruz Biotechnology) and detected using an Aquest plate reader (Molecular Devices).
Differential Cytotoxicity Assay:
HDAC inhibitors display differential cytotoxicity toward certain transformed cell lines. Cells are cultured according to standard ATCC recommended conditions that are appropriate to each cell type. Compounds were tested for their ability to kill different cell types (normal and transformed) using the ATPlite luminescence ATP detection assay system (Perkin Elmer). Assays are run in either 384-well or 1536-well Greiner PS plates. Cells (30 ul or 5 ul, respectively) are dispensed using either multichannel pipette for 384-well plates, or proprietary Kalypsys bulk liquid dispenser for 1536-well plates. Compounds added using proprietary pin-transfer device (500 nL or 5 nL) and incubated 5 to 30 hours prior to analysis. Luminescence is measured using Aquest plate reader (Molecular Devices).

| SMILES | IC50 (HDAC) [µM] | IC50 (HDAC in cells) [µM] |
| --- | --- | --- |
| CC(=O)SCC(=O)c1ccc(NS(=O)(=O)c2cccc(F)c2)cc1 [Example 46] | < 1 | < 1 |
| CC(=O)SCC(=O)c1ccc2c(c1)CCN2S(=O)(=O)c1ccccc1 [Example 48, Thioacetic acid S-[2-(1-benzenesulfonyl-2,3-dihydro-1H-indol-5-yl)-2-oxo-ethyl]ester] | < 1 | < 10 |
| CC(=O)SCC(=O)c1ccc(NS(=O)(=O)c2c(C)noc2C)cc1 [Example 29] | < 1 | < 10 |
| CC(=O)SCC(=O)c1ccc(NS(=O)(=O)c2ccc(Cl)cc2Cl)cc1 [Example 28] | < 1 | < 1 |
| CC(=O)SCC(=O)c1ccc(NS(=O)(=O)c2cccc(OC(F)(F)F)c2)cc1 [Example 41] | < 1 | < 1 |
| COc1ccc(S(=O)(=O)Nc2ccc(C(=O)CSC(C)=O)cc2)cc1OC [Example 27] | < 1 | < 1 |
| CC(=O)SCC(=O)c1ccc2c(ccn2S(=O)(=O)c2ccccc2)c1 [Example 49, Thioacetic acid S-[2-(1-benzenesulfonyl-1H-indol-5-yl)-2-oxo-ethyl]ester] | < 1 | < 1 |
| O=C(CSC(=O)c1ccccn1)c1ccc(NS(=O)(=O)c2ccc(OC(F)(F)F)cc2)cc1 [Example 09, Pyridine-2-carbothioic acid S-{2-oxo-2-[4-(4-trifluoromethoxy-benzenesulfonylamino)-phenyl]-ethyl}ester] | < 1 | < 1 |
| CC(=O)SCC(=O)c1ccc(NS(=O)(=O)c2ccccc2Cl)cc1 [Example 38] | < 1 | < 1 |
| CC(=O)SCC(=O)c1ccc(NS(=O)(=O)c2ccccc2)cc1 [Example 33] | < 1 | < 10 |
